Experimental data published in PubChem BioAssay (NCI).
Several values for one entry are separate records, joined by “and”; a condition that tells them apart may be missing. Equal entries are not always repeated.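 Five concentrations, 48 hours, 96-well plates. GI50 is the concentration that inhibits growth by half. TGI: concentration producing complete growth inhibition.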 *1 amine or outer side, *2 acyl side, *3 side chain or, on linkers, in order; H or OH if unused. Where a SMILES comes first, the peptide text is derived from it. Bridges are numbered along the chain shown (N, C = ends). [ ]: non-standard residue; d: D form. The star is where a group is joined. ξ: configuration not given here. X34 = O=C(C(CCCCNO[*:3])N[*:1])[*:2]; Fmoc = O=C(OCC1c2ccccc2-c2ccccc21)*; ξW = NC(Cc1c[nH]c2ccccc12)C(=O)O; ξP = O=C(O)C1CCCN1

Key:
Assay in all cases: NCI anticancer screen, dose series, 48 h
SF-295 CNS = tested on: SF-295 CNS
SF-268 CNS = tested on: SF-268 CNS
SR leukemia = tested on: SR leukemia
HOP-62 NSCLC = tested on: HOP-62 NSCLC
LOX IMVI melanoma = tested on: LOX IMVI melanoma
ACHN renal = tested on: ACHN renal
NCI-H460 lung = tested on: NCI-H460 lung
A549 NSCLC = tested on: A549 NSCLC
SK-MEL-5 melanoma = tested on: SK-MEL-5 melanoma
HCC-2998 colon = tested on: HCC-2998 colon

SMILES | TGI (SF-295 CNS) | TGI (SF-268 CNS) | TGI (SR leukemia) | TGI (HOP-62 NSCLC) | TGI (LOX IMVI melanoma) | TGI (ACHN renal) | TGI (NCI-H460 lung) | TGI (A549 NSCLC) | TGI (SK-MEL-5 melanoma) | TGI (HCC-2998 colon) | GI50 (HOP-62 NSCLC) | GI50 (SR leukemia) | GI50 (ACHN renal) | GI50 (A549 NSCLC) | GI50 (HCC-2998 colon) | GI50 (SF-295 CNS) | GI50 (SF-268 CNS) | GI50 (LOX IMVI melanoma) | GI50 (NCI-H460 lung) | GI50 (SK-MEL-5 melanoma)
CCCCCCCCCCCCCCCCCCNc1ccn(C2OC(COP(=O)(O)OCC3OC(n4ccc(NC(=O)CCCCCCCCCCCCCCCCC)nc4=O)C(OC(C)=O)C3OC(C)=O)C(OC(C)=O)C2OC(C)=O)c(=O)n1 (stereo unspecified) | > 100 µM | > 100 µM | > 100 µM | > 100 µM | > 100 µM | > 100 µM | > 100 µM | > 100 µM | > 100 µM | > 100 µM |  |  |  |  |  |  |  |  |  | 
CC1(O)CC(C(F)(F)F)(C(F)(F)F)OC1=O (stereo unspecified) | > 10 µM | > 10 µM | > 10 µM | > 10 µM | > 10 µM | > 10 µM | > 10 µM | > 10 µM | > 10 µM | > 10 µM |  |  |  |  |  |  |  |  |  | 
CC(C)c1ccc2[nH]c(O)c(-c3[nH]c4ccccc4c3N=O)c2c1 | 16.3 µM | 20.4 µM | 7.32 µM | 25.2 µM | 17.7 µM | 14.6 µM | 15.2 µM | 22.2 µM | 15.8 µM | 16.1 µM |  |  |  |  |  |  |  |  |  | 
CC(C)(C)C1=C(Br)C(Br)(C(C)(C)C)OP1(=O)c1ccccc1 (stereo unspecified) | > 100 µM | > 100 µM | > 100 µM | > 100 µM | > 100 µM | > 100 µM | > 100 µM | > 100 µM | > 100 µM | > 100 µM |  |  |  |  |  |  |  |  |  | 
CCOP(=O)(OCC)/C(C#N)=C/c1cnc(-c2ccccc2)[nH]1 | > 100 µM | > 100 µM | > 100 µM | > 100 µM | > 100 µM | > 100 µM | > 100 µM | > 100 µM | > 100 µM | > 100 µM |  |  |  |  |  |  |  |  |  | 
COc1ccccc1Nc1nc(N)nc(N)c1N=O | > 100 µM | > 100 µM | > 100 µM | > 100 µM | > 100 µM | > 100 µM | > 100 µM | > 100 µM | > 100 µM | > 100 µM |  |  |  |  |  |  |  |  |  | 
Cn1cc2ccccc2c1-c1nc(N)nc(F)n1 | > 100 µM | > 100 µM | > 100 µM | > 100 µM | > 100 µM | > 100 µM | > 100 µM | > 100 µM | > 100 µM | > 100 µM |  |  |  |  |  |  |  |  |  | 
OC1C2[C@@H](O)CCCN2C[C@@H](O)[C@H]1O (stereo partly specified) | > 100 µM | > 100 µM | > 100 µM | > 100 µM | > 100 µM | > 100 µM | > 100 µM | > 100 µM | > 100 µM | > 100 µM |  |  |  |  |  |  |  |  |  | 
O=C(CCCCCCCCC(=O)NN1C(=O)/C(=C\c2ccc(O)c(O)c2)SC1c1ccc(Cl)cc1)NN1C(=O)/C(=C\c2ccc(O)c(O)c2)SC1c1ccc(Cl)cc1 (stereo unspecified) | 48.1 µM | > 62.7 µM | 28.3 µM | 31.5 µM | 57.6 µM | 71.8 µM | > 100 µM | > 76.8 µM | > 100 µM | > 100 µM |  |  |  |  |  |  |  |  |  | 
O=C(O)c1c2c(cc3c1CC1(Cc4ccccc4C1)C3)CCC2 | > 100 µM | > 100 µM | > 100 µM | > 100 µM | 74.4 µM | > 100 µM | > 100 µM | > 100 µM | > 100 µM | > 100 µM |  |  |  |  |  |  |  |  |  | 
CC[C@]1(Cc2ccc(OC)c(OC)c2)CN(S(=O)(=O)c2ccc(C)cc2)C[C@@H]1OC(C)=O | > 100 µM | > 100 µM | > 100 µM | > 100 µM | > 100 µM | > 100 µM | > 100 µM | > 100 µM | > 100 µM | > 100 µM |  |  |  |  |  |  |  |  |  | 
COc1cc(-c2cc(=O)c3cc4c(cc3[nH]2)OCO4)cc(OC)c1O | > 10 µM | > 10 µM | > 10 µM | > 10 µM | > 10 µM | > 10 µM | > 10 µM | > 10 µM | > 10 µM | > 10 µM |  |  |  |  |  |  |  |  |  | 
O=C1C(Cl)=C(N2CCN(C3=C(Cl)C(=O)c4ccccc4C3=O)CC2)C(=O)c2ccccc21 | 21.5 µM | 6.1 µM | 0.458 µM | 25.5 µM | 3.12 µM | 3.09 µM | 13.6 µM | 28.1 µM | 3.25 µM | 8.35 µM |  |  |  |  |  |  |  |  |  | 
Cc1c(F)c(N)c2c(=O)cc(-c3ccc(NC(=O)CN(C)C)c(F)c3)oc2c1F | > 100 µM | > 100 µM | 61 µM | > 100 µM | > 100 µM | > 100 µM | > 100 µM | > 100 µM | > 100 µM | > 100 µM | > 100 µM |  |  |  |  |  |  |  |  | 
Brc1ccc(CCNCCN2CCCCC2)cc1 | 32.3 µM | 33.3 µM | > 100 µM | 34.9 µM | 27.6 µM | 42.6 µM | 27.8 µM | 30 µM | 20.6 µM | 27.7 µM |  |  |  |  |  |  |  |  |  | 
CN(CCC#N)c1ccc(/C=C2\SC(=S)NC2=O)cc1 | > 100 µM | > 100 µM | > 100 µM | > 100 µM | 36.2 µM | > 100 µM | > 100 µM | > 100 µM | > 100 µM | > 100 µM |  |  |  |  |  |  |  |  |  | 
COCOC1/C=C/CCCC#C[C@H](C)C(=O)CC1 (stereo partly specified) | 31.7 µM | 26.5 µM | > 33.2 µM | 34.8 µM | 11.5 µM | 27.8 µM | 25.5 µM | 21.1 µM | 21.7 µM | 28.9 µM |  |  |  |  |  |  |  |  |  | 
O=C1CCC[C@@H]2NC[C@@H](c3ccc4c(c3)OCO4)[C@H]12 | > 25 µM | > 25 µM | > 25 µM | > 25 µM | > 25 µM | > 25 µM | > 25 µM | > 25 µM | > 25 µM | > 25 µM |  |  |  |  |  |  |  |  |  | 
CCOc1cc(NC(C)=O)ccc1C(=O)NNC(=O)c1ccccc1OC(C)=O | > 100 µM | > 100 µM | > 34.7 µM | > 100 µM | > 100 µM | > 100 µM | 32.9 µM | > 100 µM | 22.6 µM | > 100 µM |  |  |  |  |  |  |  |  |  | 
C[C@@]12[C@H]3CC[C@@H]1[C@H](O)C(=O)N2CC3 | > 100 µM | > 100 µM | > 100 µM | > 100 µM | > 100 µM | > 100 µM | > 100 µM | > 100 µM | > 100 µM | > 100 µM |  |  |  |  |  |  |  |  |  | 
Cc1nc2c(sc(=S)n2-c2ccccc2)c2nc3ncccc3n12 | > 100 µM | > 100 µM | > 100 µM | 90.3 µM | > 100 µM | > 100 µM | > 100 µM | > 100 µM | > 100 µM | > 100 µM |  |  |  |  |  |  |  |  |  | 
NC(=O)CNC(=O)C1CCCN1C(=O)C1CCCCNOC(=O)CC[C@@H](NC(=O)OCC2c3ccccc3-c3ccccc32)C(=O)NC(Cc2c[nH]c3ccccc23)C(=O)N1 (stereo partly specified) (Fmoc-[dE][ξW][X34][ξP]G-NH2; ester 1-3) | > 100 µM | > 100 µM | > 100 µM | > 100 µM | > 100 µM | > 100 µM | > 100 µM | > 100 µM | > 100 µM | > 100 µM |  |  |  |  |  |  |  |  |  | 
COCOC1/C=C/CCCCC2=C(C)C=C(C1)O2 (stereo unspecified) | > 100 µM | > 100 µM | > 100 µM | > 100 µM | > 100 µM | > 100 µM | > 100 µM | > 100 µM | > 100 µM | > 100 µM |  |  |  |  |  |  |  |  |  | 
COc1cccc(-c2cc(=O)c3ccccc3o2)c1N | > 100 µM | > 100 µM | > 100 µM | > 100 µM | > 100 µM | > 100 µM | > 100 µM | > 100 µM | > 100 µM | > 100 µM |  |  |  |  |  |  |  |  |  | 
CC(=O)OCC1OC(OC(C)(C)CC/C=C(\C)[C@@H]2C/C=C(\C)CC/C=C(\C)CC2)C(O)C(O)C1OC(C)=O (stereo partly specified) | > 100 µM and 42.4 µM | 98.7 µM and 38.3 µM | > 100 µM | > 100 µM and 30.4 µM | 33.5 µM and 54.1 µM | > 100 µM and 26.7 µM | 35.3 µM and 61.8 µM | > 100 µM and 36 µM | > 83.7 µM and 34.6 µM | > 100 µM and 35.9 µM | > 82.7 µM and 16.8 µM | 36.3 µM and > 100 µM | > 65.1 µM and 13.8 µM | > 65.2 µM and 16.2 µM | 69.8 µM and 17.9 µM |  |  |  |  | 
CCCCN1C(=O)CC2[C@@H]3CCc4cc(OC(C)=O)ccc4C3CC[C@]2(C)C1=O (stereo partly specified) | > 10 µM | > 10 µM | > 10 µM | > 10 µM | > 10 µM | > 10 µM | > 10 µM | > 10 µM | > 10 µM | > 10 µM |  |  |  |  |  |  |  |  |  | 
C=C1CC(COc2cc(=O)oc3ccccc23)(c2ccccc2)OC1=O (stereo unspecified) | 22.7 µM | 29.7 µM | > 28 µM | 22.9 µM | 3.2 µM | 4.54 µM | 23.7 µM | 25.1 µM | 3.35 µM | 4.21 µM |  |  |  |  |  |  |  |  |  | 
CC(C)(N=NC(C)(C)C(=O)NCCO)C(=O)NCCO | > 100 µM | > 100 µM | > 100 µM | > 100 µM | > 100 µM | > 100 µM | > 100 µM | > 100 µM | > 100 µM | > 100 µM |  |  |  |  |  |  |  |  |  | 
COc1ccc2[nH]c(O)c(/C=c3/cc4c(c(-c5cc(OC)c(OC)c(OC)c5)n3)=Nc3ccccc3-4)c2c1 | > 100 µM | > 100 µM | 8.79 µM | > 100 µM | > 100 µM | > 100 µM | > 100 µM | > 100 µM | 77.8 µM | > 100 µM | 11.6 µM | 1.59 µM | 7.47 µM | 8.66 µM | 34 µM | 8.97 µM | 46.4 µM | 7.54 µM | 4.07 µM | 2.47 µM
